The values that follow come from US4959359A, “Phenyl-thiazepinones as calcium regulating agents” (Hoffmann-La Roche Inc., priority 1989, dated 1990).

Where a name gives a salt, the structure may show the parent alone.

The first assay has as its system isolated rat aortic strips. Kind of assay: Contraction of rat aortic strips: inhibition of Ca++-induced contracture (calcium channel blocking activity). The assay is classed as cell-based. Conditions: 15 minute exposure at 3×10^-7 M. How it is done:
The calcium channel blocking activity of compounds of formula I was determined by measuring the effect of compounds of formula I on isolated rat aortic strips.
Aortas were excised from rats, placed in Krebs-Henseleit solution, modified so as to be calcium free, with a depolarized level of potassium (45 mM), and 0.02 mM EDTA. The aorta was then helically cut into a strip about 2 mm wide. This strip was then divided into four equal segments about 15 mm in length, which were hung in isolated tissue chambers, attached to the appropriate tranducers and subjected to 500 mg basal tension. After a period of stabilization under these conditions, calcium was introduced into the bath and the tissues contracted in a concentration dependent manner.
When no calcium is available in the bathing media, and the potential dependent calcium channels are opened by the high potassium level, contractility is dependent on the level of calcium introduced into the bath. By adding increments of calcium into the bath, a reproducible concentration-dependent contracture can be obtained. Treatment with a calcium channel blocker, such as diltiazem, or a compound of the invention results in an inhibition of this contractile response.
Each number in the table below was derived by first adding calcium alone to tissue and measuring contracture, and then adding calcium to tissue that had been exposed to 3×10^-7 M of the compound to be tested and measuring contracture. The number for untreated controls was derived by measuring contracture for two runs where calcium alone was added.
A compound tested was placed in the bath at 3×10^-7 M for 15 minutes prior to, and during the acquisition of the concentration-dependent curve to calcium for that particular compound. The inhibition in contractile response at 2 mMCa++ was measured as a per cent inhibition as compared to the control. The effects on the 2 mM Ca++ contracture are as follows:
That is, compound A inhibited almost three quarters of the contracture observed for the control at 2 mM Ca++. As used above, compounds A, B, C, and D are as follows: […]
Take `COc1ccc([C@@H]2Sc3ccccc3N(CCN(C)C)C(=O)[C@@H]2OC(C)=O)cc1` [Diltiazem, reference compound]: the “responsiveness to 2 mM Ca++” value is on record as “marked reduction in responsiveness”.

Staying with this assay, now noted: Rattus norvegicus, read-out: % Inhibition (contractile response at 2 mM Ca++ as compared to the control), heading: % Inhibition, 3×10^-7 M, 15 minutes prior to and during the calcium curve, depolarizing K+ 45 mM, diltiazem n = 10, A-D n = 1.
As usually defined, the inhibition is the percentage by which the read-out fell short of the control. As to `COc1ccc([C@H]2SC(c3ccccc3)=C(C)N(CCN(C)C)C(=O)[C@H]2OC(C)=O)cc1` (racemic) [Compound A, cis-rac.-6-(acetyloxy)-6,7-dihydro-7-(4-methoxyphenyl)-3-methyl-4-[2-(dimethylamino)ethyl]-2-phenyl-1,4-thiazepin-5(4H)-one (E)-2-butenedioate], the inhibition at 0.3 µM was 73.4%.
Turning to `COc1ccc([C@@H]2SC(c3ccccc3)=C(C)N(CCN(C)C)C(=O)[C@H]2OC(C)=O)cc1` (relative stereo) [D, trans-rac.-6-(acetyloxy)6,7-dihydro-7-(4-methoxyphenyl)-3-methyl-4-[2-dimethylamino)ethyl]-2-phenyl-1,4-thiazepin-5(4H)-one hydrochloride], the inhibition at 0.3 µM was 13.4%.
In the case of `COc1ccc([C@H]2SC(c3ccccc3)=C(C)N(CCN(C)C)C(=O)[C@H]2OC(C)=O)cc1` [C, (-)-cis-6-(acetyloxy)-6,7-dihydro-7-(4-methoxyphenyl)-3-methyl-4-[2-dimethylamino)ethyl]-2-phenyl-1,4-thiazepin-5(4H)-one [R-(R*,R*)]-2,3-dihydroxybutanedioic acid sesquihydrate], the inhibition at 0.3 µM was determined as 3.8%.
Regarding `COc1ccc([C@@H]2SC(c3ccccc3)=C(C)N(CCN(C)C)C(=O)[C@@H]2OC(C)=O)cc1` [Compound B, (+)-cis-6-(acetyloxy)-6,7-dihydro-7-(4-methoxyphenyl)-3-methyl-4-[2-dimethylamino)ethyl]-2-phenyl-1,4-thiazepin-5(4H)-one [S-(R*,R*)]-2,3-dihydroxybutanedioic acid hydrate], the inhibition at 0.3 µM worked out at 88.3%.
Consider `COc1ccc([C@@H]2Sc3ccccc3N(CCN(C)C)C(=O)[C@@H]2OC(C)=O)cc1` [Diltiazem, reference compound], for which the inhibition at 0.3 µM came out at 71.1%.
